This is an account of results in KR20130112248A, “피라졸로피리미딘 유도체 화합물, 이를 포함하는 산화질소 생성 억제용 조성물 및 뇌신경 질환 예방 및 치료용 약학적 조성물” (한국과학기술연구원, priority 2012, dated 2013).

For the first test, the system named is NO production in BV-2 cells [NO 생성; BV-2 세포]. In words: Nitric oxide (NO) quantification (nitrite, Griess reaction) in LPS-activated BV-2 cells. The format is cell-based. Conditions: 20 μM, LPS 0.2 ㎍/mL, 24 h co-treatment, nitrite by Griess at 540 nm.
“2-(4-(4-플루오로벤질아미노)-6-(메틸티오)-1H-피라졸로[3,4-d]피리미딘-1-일)에틸카바메이트 [화합물 14f]”: the “NO (% of LPS)” value was 38.3±1.3 % of LPS.

In the case of “1-t-뷰틸-4-(1-하이드록시에틸)아미노-6-(메틸티오)피라졸로[3,4-d]피리미딘 [화합물 17d]”, the “NO (% of LPS)” value is 93±2 % of LPS.

As for “2-(4-(1-페닐에틸아미노)-6-(메틸티오)-1H-피라졸로[3,4-d]피리미딘-1-일)에틸카바메이트 [화합물 14g]”, the “NO (% of LPS)” value is 33.5±1.3 % of LPS.

Take “1-(N-t-Boc-아미노에틸)-4-(1-하이드록시에틸)아미노-6-(메틸티오)피라졸로[3,4-d]피리미딘 [화합물 14b]”: the “NO (% of LPS)” value is 102±4 % of LPS.

The same test, now with this note: 20 μM, LPS 0.2 ㎍/mL, 24 h co-treatment, nitrite by Griess at 540 nm, 1440 min.
On to `COc1cccc(CCn2ncc3c(NCc4ccccc4C)nc(S(C)(=O)=O)nc32)c1` [화합물 23y, N-(2-메틸벤질)-1-(3-메톡시펜에틸)-6-(메틸설포닐)-1H-피라졸로[3,4-d]피리미딘-4-아민], for which the “NO (% of LPS)” value is 54±3.5 % of LPS.

On to `CC(Nc1nc([S+](C)[O-])nc2c1cnn2Cc1ccccc1)c1ccccc1` (stereo not drawn) [화합물 22h, 1-벤질-6-(메틸설파이닐)-N-(1-페닐에틸)-1H-피라졸로[3,4-d]피리미딘-4-아민], for which the “NO (% of LPS)” value is on record as 59±1.4 % of LPS.

On to `CC(Nc1nc([S+](C)[O-])nc2c1cnn2Cc1ccccc1)c1ccccc1` (stereo not drawn) [화합물 22j, 1-벤질-6-(메틸설파이닐)-N-(1-페닐에틸)-1H-피라졸로[3,4-d]피리미딘-4-아민], for which the “NO (% of LPS)” value is 70±3.9 % of LPS.

The same test, now with this note: Mus musculus, BV-2, 24 h, 20 μM, LPS 0.2 ㎍/mL, 24 h co-treatment, nitrite by Griess at 540 nm.
On to `C[S+]([O-])c1nc(NCc2ccccc2Cl)c2cnn(-c3ccccc3)c2n1` (stereo not drawn) [화합물 22a, N-(2-클로로벤질)-6-(메틸설파이닐)-1-페닐-1H-피라졸로[3,4-d]피리미딘-4-아민], for which the activity at 20 µM is 24 ± 12.9%.

As for `CSc1nc(NCc2ccccc2)c2cnn(C)c2n1` [12a, 1-메틸-4-벤질아미노-6-(메틸티오)피라졸로[3,4-d]피리미딘], the activity at 20 µM amounted to 77 ± 2%.

On to `CSc1nc(NCc2ccc(F)cc2)c2c(-c3ccccc3)nn(-c3ccccc3)c2n1` [화합물 31c, 1-페닐-3-페닐-4-(4-플루오로벤질)아미노-6-(메틸티오)피라졸로[3,4-d]피리미딘], for which the activity at 20 µM stood at 100 ± 4%.

As for `COc1cccc(CCn2ncc3c(NCc4ccccc4)nc(SC)nc32)c1` [화합물 18h, 1-(3-메톡시펜에틸)-N-벤질-6-(메틸티오)-1H-피라졸로[3,4-d]피리미딘-4-아민], the activity at 20 µM was found to be 56 ± 3.1%.

On to `COc1ccccc1CCn1ncc2c(NCc3ccccc3C)nc(SC)nc21` [화합물 19g, N-(2-메톡시벤질)-1-(2-메톡시펜에틸)-6-(메틸티오)-1H-피라졸로[3,4-d]피리미딘-4-아민], for which the activity at 20 µM amounted to 27.4 ± 0.7%.

For the compound `CSc1nc(NC2CCCCC2)c2cn[nH]c2n1` [6t, 4-사이클로헥실아미노-6-(메틸티오)피라졸로[3,4-d]피리미딘], the activity at 20 µM was found to be 106 ± 5%.

For the compound `CSc1nc(NCCN2CCCCC2)c2cnn(-c3ccccc3)c2n1` [화합물 15g, 1-페닐-4-[2-(피페리딘-1-일)]에틸아미노-6-(메틸티오)피라졸로[3,4-d]피리미딘], the activity at 20 µM worked out at 64 ± 7%.

Turning to `CSc1nc2c(cnn2Cc2ccccc2)c(=S)[nH]1` [9c, 1-벤질-6-(메틸티오)피라졸로[3,4-d]피리미딘-4-티온], the activity at 20 µM is 79 ± 5%.

Regarding `CSc1nc2c(cnn2-c2ccccc2)c(=O)[nH]1` [8b, 1-페닐-6-(메틸티오)피라졸로[3,4-d]피리미딘-4-온], the activity at 20 µM stood at 75 ± 3%.

Take `CSc1nc(N[C@H](C)c2ccccc2)c2cnn(Cc3ccccc3)c2n1` [화합물 16e, (R)-1-벤질-4-(1-페닐에틸)아미노-6-(메틸티오)피라졸로[3,4-d]피리미딘]: the activity at 20 µM worked out at 36 ± 4%.

With `COc1cccc(CCn2ncc3c(NCc4cccc(OC)c4)nc(SC)nc32)c1` [화합물 18d, N-(3-메톡시벤질)-1-(3-메톡시펜에틸)-6-(메틸티오)-1H-피라졸로[3,4-d]피리미딘-4-아민], the activity at 20 µM was determined as 39 ± 4.8%.

On to `CSc1nc(NCc2ccccc2C)c2cnn(-c3ccccc3)c2n1` [화합물 15o, 1-페닐-4-(2-메틸벤질)아미노-6-(메틸티오)피라졸로[3,4-d]피리미딘], for which the activity at 20 µM was 57 ± 1%.

For the compound `CSc1nc(NCc2ccccc2Cl)c2cnn(C(C)(C)C)c2n1` [화합물 17n, N-(2-클로로벤질)-1-t-뷰틸-6-(메틸티오)-1H-피라졸로[3,4-d]피리미딘-4-아민], the activity at 20 µM amounted to 38 ± 2.9%.

Turning to `COc1nc(SC)nc2c1cnn2CCO` [화합물 27f, 2-(4-메톡시-6-(메틸티오)-1H-피라졸로[3,4-d]피리미딘-1-일)에탄올], the activity at 20 µM came to 86 ± 3%.

With `CSc1nc(NC(C)(C)CO)c2cnn(-c3ccccc3)c2n1` [화합물 15k, 1-페닐-4-[(1-하이드록시-2,2-다이메틸)에틸]아미노-6-(메틸티오)피라졸로[3,4-d]피리미딘], the activity at 20 µM was found to be 70 ± 3%.

As for `COc1ccc([C@H](C)Nc2nc(SC)nc3c2cnn3-c2ccc(C)cc2)cc1` [화합물 21j, N-((S)-1-(4-메톡시페닐)에틸)-6-(메틸티오)-1-p-톨릴-1H-피라졸로[3,4-d]피리미딘-4-아민], the activity at 20 µM was found to be 52 ± 1.7%.

Turning to `CSc1nc(SCCCCl)c2cnn(Cc3ccccc3)c2n1` [화합물 16o, 4-(3-클로로프로필티오)-1-벤질-6-(메틸티오)-1H-피라졸로[3,4-d]피리미딘], the activity at 20 µM stood at 43 ± 4.6%.

As for `CC(Nc1nc(NCCCO)nc2c1cnn2Cc1ccccc1)c1ccccc1` (stereo not drawn) [화합물 24b, 3-(4-(1-페닐에틸아미노)-1-벤질-1H-피라졸로[3,4-d]피리미딘-6-일아미노)프로판-1-올], the activity at 20 µM stood at 137 ± 5.7%.

Consider `CSc1nc(N(CCO)CCO)c2cnn(-c3ccccc3)c2n1` [화합물 15i, 1-페닐-4-비스(1-하이드록시에틸)아미노-6-(메틸티오)피라졸로[3,4-d]피리미딘], for which the activity at 20 µM turned out to be 90 ± 3%.

Turning to `CSc1ncc2cnn(-c3ccccc3)c2n1` [7b, 1-페닐-6-(메틸티오)피라졸로[3,4-d]피리미딘], the activity at 20 µM came out at 78 ± 4%.

In the case of `COc1ccc([C@H](C)Nc2nc(SC)nc3c2cnn3Cc2ccccc2)cc1` [화합물 16zb, 1-벤질-N-((S)-1-(4-메톡시페닐)에틸)-6-(메틸티오)-1H-피라졸로[3,4-d]피리미딘-4-아민], the activity at 20 µM stood at 49 ± 2.4%.

Regarding `CSc1nc(NC(C)(C)CO)c2cnn(C)c2n1` [12b, 1-메틸-4-[(1-하이드록시-2,2-다이메틸)에틸]아미노-6-(메틸티오)피라졸로[3,4-d]피리미딘], the activity at 20 µM is 90 ± 7%.

On to `C=CCn1ncc2c(NCc3ccc(OC)cc3)nc(SC)nc21` [화합물 13m, N-(4-메톡시벤질)-1-알릴-6-(메틸티오)-1H-피라졸로[3,4-d]피리미딘-4-아민], for which the activity at 20 µM came to 8.6 ± 2.7%.

In the case of `CSc1nc(Sc2ccc(C)cc2)c2cnn(Cc3ccccc3)c2n1` [화합물 16p, 4-(p-톨릴티오)-1-벤질-6-(메틸티오)-1H-피라졸로[3,4-d]피리미딘], the activity at 20 µM amounted to 34 ± 1.7%.

For `COc1cccc(CNc2nc(SC)nc3c2cnn3CCNC(=O)OC(C)(C)C)c1` [화합물 14d, 1-(N-t-Boc-아미노에틸)-4-(3-메톡시벤질)아미노-6-(메틸티오)피라졸로[3,4-d]피리미딘], the activity at 20 µM worked out at 49 ± 12%.

`C=CCNc1nc(SC)nc2c1cnn2-c1ccccc1` [화합물 15f, 1-페닐-4-알릴아미노-6-(메틸티오)피라졸로[3,4-d]피리미딘]: the activity at 20 µM turned out to be 60 ± 17%.

On to `CSc1nc(NCCc2ccccc2)c2cn[nH]c2n1` [6c, 4-펜에틸아미노-6-(메틸티오)피라졸로[3,4-d]피리미딘], for which the activity at 20 µM was 91 ± 4%.

Turning to `C=CCNc1nc(SC)nc2c1cnn2C(C)(C)C` [화합물 17f, 1-t-뷰틸-4-알릴아미노-6-(메틸티오)피라졸로[3,4-d]피리미딘], the activity at 20 µM was determined as 89 ± 8%.

On to `COc1ccc(CNc2nc(SC)nc3c2cnn3CCNC(=O)OC(C)(C)C)cc1` [화합물 14j, 2-(4-(4-메톡시벤질아미노)-6-(메틸티오)-1H-피라졸로[3,4-d]피리미딘-1-일)에틸카바메이트], for which the activity at 20 µM worked out at 25.8 ± 3%.

Regarding `CC(Nc1nc(NCCOCCO)nc2c1cnn2Cc1ccccc1)c1ccccc1` (stereo not drawn) [화합물 24d, 2-(2-(4-(1-페닐에틸아미노)-1-벤질-1H-피라졸로[3,4-d]피리미딘-6-일아미노)에톡시)에탄올], the activity at 20 µM worked out at 130 ± 1.8%.

For `CSc1nc2c(cnn2-c2ccccc2)c(=S)[nH]1` [9b, 1-페닐-6-(메틸티오)피라졸로[3,4-d]피리미딘-4-티온], the activity at 20 µM worked out at 94 ± 7%.

Consider `CSc1nc(Cl)c2cnn(C(C)(C)C)c2n1` [5g, 1-t-뷰틸-4-클로로-6-(메틸티오)피라졸로[3,4-d]피리미딘], for which the activity at 20 µM amounted to 15 ± 18%.

For `CSc1nc(NCc2ccccn2)c2c(-c3ccccc3)nn(-c3ccccc3)c2n1` [화합물 31f, 1-페닐-3-페닐-4-(피리딘-2-일)메틸아미노-6-(메틸티오)피라졸로[3,4-d]피리미딘], the activity at 20 µM is 100 ± 5%.

Take `C=CCNc1nc(SC)nc2c1c(-c1ccccc1)nn2Cc1ccccc1` [32d, 1-벤질-3-페닐-4-알릴아미노-6-(메틸티오)피라졸로[3,4-d]피리미딘]: the activity at 20 µM is 46 ± 2%.

As for `COc1cccc(CNc2nc(SC)nc3c2cnn3C(C)(C)C)c1` [화합물 17k, N-(3-메톡시벤질)-1-t-뷰틸-6-(methylthio)-1H-피라졸로[3,4-d]피리미딘-4-아민], the activity at 20 µM worked out at 51 ± 5%.

For `COc1ccccc1CCn1ncc2c(NCc3ccccc3Cl)nc(SC)nc21` [화합물 19h, N-(2-클로로벤질)-1-(2-메톡시펜에틸)-6-(메틸티오)-1H-피라졸로[3,4-d]피리미딘-4-아민], the activity at 20 µM worked out at 18 ± 1.2%.

The test is the same for the next values; noted with them: Mus musculus, BV-2, 24 h, 30 μM, LPS 0.2 ㎍/mL, 24 h co-treatment, nitrite by Griess at 540 nm.
For the compound `COc1nc(SC)nc2[nH]nc(I)c12` [11d, 3-아이오도-4-메톡시-6-(메틸티오)피라졸로[3,4-d]피리미딘], the activity at 30 µM was 91 ± 3%.

`CSc1nc2[nH]ncc2c(=O)[nH]1` [8a, 6-(메틸티오)피라졸로[3,4-d]피리미딘-4-온]: the activity at 30 µM worked out at 75 ± 0.9%.
